Values quoted from earlier work as cited in patent US10799449B2, “Medicinal delivery system and related methods” (JSRNTI, LLC, priority 2006, dated 2020).

Experiments:
[1] = in water

Q: For `OC[C@@H](O)[C@@H](O[C@@H]1O[C@H](CO)[C@H](O)[C@H](O)[C@H]1O)[C@H](O)[C@@H](O)CO` [Lactitol], which Solubility [1] is on record?
A: Its Solubility is 55 grams/100 grams water.

Q: Which Solubility [1] does the source give for `OC[C@@H](O)[C@@H](O[C@H]1O[C@H](CO)[C@@H](O)[C@H](O)[C@H]1O)[C@H](O)[C@@H](O)CO` [Maltitol] here?
A: The Solubility was 71 grams/100 grams water.

Q: With `OC[C@@H](O)[C@@H](O)[C@H](O)[C@H](O)CO` [Mannitol] as the compound, how does the Solubility [1] read?
A: The Solubility was 23 grams/100 grams water.

Q: Which “Available nicotine in an un-ionized state” value (buffered saliva pH of 9.0) does the source give for `CN1CCCC1c1cccnc1` (stereo not drawn) [Nicotine] here?
A: Its value is “approximately 91%”.

Q: And the pKa (weak base)?
A: The pKa was “approximately 8.0”.

Q: What about the “Available nicotine in the un-ionized form” value (without buffer, normal saliva pH of 6.5) of the same compound?
A: Its value is 3%.

Q: With `OC[C@@H](O)[C@@H](O)[C@H](O)[C@@H](O)CO` [Sorbitol] as the compound, how does the Solubility [1] read?
A: The Solubility was 75 grams/100 grams water.

Q: For `OC[C@@H](O)[C@H](O)[C@@H](O)CO` [Xylitol], which Solubility [1] is on record?
A: The Solubility was 70 grams/100 grams water.

Q: With Isomalt as the compound, how does the Solubility [1] read?
A: Its Solubility is 38 grams/100 grams water.
